Test results published in patent publication US11453671B2, “Pyrazolopyrimidine inhibitors of JAK kinases and uses thereof” (Genentech, Inc., priority 2020, dated 2022).
Like-named read-outs stand apart in the source and are kept apart here.

What was measured:
[1] = target: T1, recombinant human JAK1 kinase domain protein (Residues 854-1154) (Homo sapiens, UniProt P23458); test: JAK1 biochemical assay (microfluidic mobility shift, peptide phosphorylation); settings: 25 μM ATP, 1 nM total JAK1; read-out: Enzyme JAK1 Ki
T1 construct: human JAK1 kinase domain protein (Residues 854-1154); purchased Proteros Biostructures GmbH (Martinsried, Germany); host or cells: insect cells
Excerpt: JAK1 and JAK2 Biochemical Assays

[2] = test system: JAK1: IL-13-stimulated STAT6 phosphorylation in BEAS-2B cells; test: P-STAT6 BEAS-2B+IL-13 Cell Assay; assay type: cell-based, human; settings: IL-13 stimulation, read-out: Cellular JAK1 PSTAT6 BEAS2B + IL13 IC50
In short: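 BEAS-2B cells in BEGM preincubated 1 h at 37 °C with 10-point, 1:2 compound dilutions, then stimulated 15 min with IL-13 (250 ng/mL stock). Lysate pSTAT6 (Tyr641) captured on total-STAT6 antibody and read by MSD electrochemiluminescence; IC50 from four-parameter logistic fit.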

[3] = Cell cytotoxicity assay HEK-293T (CellTiter-Glo, 72 hours); assay type: cell-based; settings: human, HEK-293T cells, Table 3; 72 hours, top concentration of 50 μM; read-out: Cytotox K-293 EC50
Excerpt: (§1) Cytotoxicity assays. Hepatocyte toxicity, general cytotoxicity or cytotoxicity of unknown mechanism is an undesirable feature for a potential drug, including inhaled drugs. It may be of benefit for an inhaled JAK1 or JAK1/JAK2 inhibitor to have low intrinsic cytotoxicity against various cell types. Typical cell types used to assess cytotoxicity include both primary cells such as human hepatocytes, and proliferating established cell lines such as Jurkat and HEK-293. […] Methods of measuring cytotoxicity are known in the art. In some embodiments, compounds described herein were tested as follows:
(§2) (a) Jurkat and HEK293T cells were maintained at a sub confluent density in T175 flasks. Cells were plated at 450 cells/45 μl medium in Greiner 384 well black/clear tissue culture treated plates. (Greiner Catalog #781091). After dispensing cells, plates were equilibrated at room temperature for 30 minutes. After 30 minutes at room temperature, cells were incubated overnight at 37° C. in a CO2 and humidity controlled incubator. The following day, cells were treated with compounds diluted in 100% DMSO (final DMSO concentration on cells=0.5%) with a 10 point dose-response curve with a top concentration of 50 μM. Cells and compounds were then incubated for 72 hours overnight at 37° C. in a CO2 and humidity controlled incubator. After 72 hours of incubation, viability was measured using CellTiterGlo® (Promega Catalog #G7572) to all wells. After incubation at room temperature for 20 minutes, plates were read on EnVision™ (Perkin Elmer Life Sciences) using luminescence mode;
(§3) A549 (ATCC® CCL-185™), Jurkat clone E6-1 (ATCC® TIB-152™) and HEK-293T (ATCC® CRL-1573™) cells maintained at a sub-confluent density in T175 flasks were used. Cells in exponential growth phase were plated (450 cells in 45 μL of medium) in Greiner 384-well black/clear tissue culture treated plates (Greiner Catalog No. 781091). After dispensing cells, plates were allowed to equilibrate at room temperature for 30 minutes, after which time the cell plates were placed overnight in a 37° C. CO2 and humidity-controlled incubator. The following day, cells were treated with test agent diluted in 100% DMSO (0.5% final DMSO concentration on cells) with a 10-point titration and a top concentration of 50 μM. Cells and compounds were then incubated for 72 hours in a 37° C. CO2 and humidity-controlled incubator, after which time cell viability was measured by adding CellTiter-Glo® (Promega G7572) reagent to all wells. Plates were incubated at room temperature for 20 minutes and then the well luminescence was read on an EnVision plate reader (Perkin Elmer Life Sciences).

[4] = Cell cytotoxicity assay Jurkat (CellTiter-Glo, 72 hours); assay type: cell-based; settings: human, Jurkat clone E6-1 cells, Table 3; 72 hours, top concentration of 50 μM; read-out: Cytotox Jurkat EC50
Excerpt: as §1, §2, §3

T1 sequence (P23458 854-1154): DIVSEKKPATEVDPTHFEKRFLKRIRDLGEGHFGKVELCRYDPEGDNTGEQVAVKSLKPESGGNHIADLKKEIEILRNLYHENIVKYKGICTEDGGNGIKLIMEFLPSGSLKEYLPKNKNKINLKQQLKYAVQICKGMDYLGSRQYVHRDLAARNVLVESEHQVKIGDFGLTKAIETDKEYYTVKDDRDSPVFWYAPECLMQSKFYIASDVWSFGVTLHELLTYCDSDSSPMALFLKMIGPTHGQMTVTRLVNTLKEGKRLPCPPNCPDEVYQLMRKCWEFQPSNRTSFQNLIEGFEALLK

Structure (SMILES)	Ki [1] [µM]	IC50 [2] [µM]	IC50 ([2]; Homo sapiens, BEAS-2B) [µM]	EC50 at 72 h [3] [µM]	EC50 at 72 h [4] [µM]
CS(=O)(=O)c1ccc(OC(F)F)c(-c2nn(CC#N)cc2NC(=O)c2cnn3cccnc23)c1 [Example 28, N-[1-(cyanomethyl)-3-[2-(difluoromethoxy)-5-methylsulfonyl-phenyl]pyrazol-4-yl]pyrazolo[1,5-a]pyrimidine-3-carboxamide]	0.00024	–	0.0095	24	39
C[C@H](Cn1cc(S(=O)(=O)c2ccc(OC(F)F)c(-c3nn(C)cc3NC(=O)c3cnn4cccnc34)c2)cn1)N(C)C [Example 59, N-[3-[2-(difluoromethoxy)-5-[1-[(2R)-2-(dimethylamino)propyl]pyrazol-4-yl]sulfonyl-phenyl]-1-methyl-pyrazol-4-yl]pyrazolo[1,5-a]pyrimidine-3-carboxamide]	0.00053	–	0.032	14	30
Cn1cc(NC(=O)c2cnn3cccnc23)c(-c2cc(S(=O)(=O)C3CCCNC3)ccc2OC(F)F)n1 (single isomer, unassigned) [Example 37, N-[3-[2-(difluoromethoxy)-5-(3-piperidylsulfonyl)phenyl]-1-methyl-pyrazol-4-yl]pyrazolo[1,5-a]pyrimidine-3-carboxamide]	0.00069	–	0.046	31	≥ 50
Cn1cc(NC(=O)c2cnn3cccnc23)c(-c2cc(S(=O)(=O)c3ccccc3)ccc2OC(F)F)n1 [Example 40, N-[3-[5-(benzenesulfonyl)-2-(difluoromethoxy)phenyl]-1-methyl-pyrazol-4-yl]pyrazolo[1,5-a]pyrimidine-3-carboxamide]	0.00021	–	0.024	≥ 50	≥ 50
CN(C)CCn1cc(S(=O)(=O)c2ccc(OC(F)F)c(-c3nn(C)cc3NC(=O)c3cnn4cccnc34)c2)cn1 [Example 49, N-[3-[2-(difluoromethoxy)-5-[1-[2-(dimethylamino)ethyl]pyrazol-4-yl]sulfonyl-phenyl]-1-methyl-pyrazol-4-yl]pyrazolo[1,5-a]pyrimidine-3-carboxamide]	0.0005	–	0.028	14	24
Cn1cc(S(=O)(=O)c2ccc(OC(F)F)c(-c3nn(C)cc3NC(=O)c3cnn4cccnc34)c2)cn1 [Example 35, N-[3-[2-(difluoromethoxy)-5-(1-methylpyrazol-4-yl)sulfonyl-phenyl]-1-methyl-pyrazol-4-yl]pyrazolo[1,5-a]pyrimidine-3-carboxamide]	0.0003	–	0.024	17	21
Cn1cc(NC(=O)c2cnn3cccnc23)c(-c2cc3c(cc2OC(F)F)NCCS3(=O)=O)n1 [Example 46, N-[3-[6-(difluoromethoxy)-1,1-dioxo-3,4-dihydro-2H-1lambda6,4-benzothiazin-7-yl]-1-methyl-pyrazol-4-yl]pyrazolo[1,5-a]pyrimidine-3-carboxamide]	0.00026	–	0.049	≥ 50	≥ 50
Cn1cc(NC(=O)c2cnn3cccnc23)c(-c2cc(S(=O)(=O)c3ccncc3)ccc2OC(F)F)n1 [Example 16, N-[3-[2-(difluoromethoxy)-5-(4-pyridylsulfonyl)phenyl]-1-methyl-pyrazol-4-yl]pyrazolo[1,5-a]pyrimidine-3-carboxamide]	0.00032	–	0.015	7.6	6.2
Cn1cc(NC(=O)c2cnn3cccnc23)c(-c2cc(S(=O)(=O)c3cn[nH]c3)ccc2OC(F)F)n1 [Example 41, N-[3-[2-(difluoromethoxy)-5-(1H-pyrazol-4-ylsulfonyl)phenyl]-1-methyl-pyrazol-4-yl]pyrazolo[1,5-a]pyrimidine-3-carboxamide]	0.00018	–	0.037	28	35

Further lines, with some results ahead:

Ki [1] [µM]	Structure (SMILES)	IC50 [2] [µM]	IC50 ([2]; Homo sapiens, BEAS-2B) [µM]	EC50 at 72 h [3] [µM]	EC50 at 72 h [4] [µM]
0.00046	CC(CO)S(=O)(=O)c1ccc(OC(F)F)c(-c2nn(C)cc2NC(=O)c2cnn3cccnc23)c1 (single isomer, unassigned) [Example 24, N-[3-[2-(difluoromethoxy)-5-(2-hydroxy-1-methyl-ethyl)sulfonyl-phenyl]-1-methyl-pyrazol-4-yl]pyrazolo[1,5-a]pyrimidine-3-carboxamide]	0.03	–	–	–
0.0004	Cn1cc(NC(=O)c2cnn3cccnc23)c(-c2cc(S(=O)(=O)C3COC3)ccc2OC(F)F)n1 [Example 13, N-[3-[2-(difluoromethoxy)-5-(oxetan-3-ylsulfonyl)phenyl]-1-methyl-pyrazol-4-yl]pyrazolo[1,5-a]pyrimidine-3-carboxamide]	–	0.033	31	≥ 50
0.00048	C[C@@H](O)CS(=O)(=O)c1ccc(OC(F)F)c(-c2nn(C)cc2NC(=O)c2cnn3cccnc23)c1 (stereo in doubt) [Example 25, N-[3-[2-(difluoromethoxy)-5-[rac-(2R)-2-hydroxypropyl]sulfonyl-phenyl]-1-methyl-pyrazol-4-yl]pyrazolo[1,5-a]pyrimidine-3-carboxamide]	–	0.02	48	≥ 50
0.00022	CN(C)S(=O)(=O)c1ccc(OC(F)F)c(-c2nn(C)cc2NC(=O)c2cnn3cccnc23)c1 [Example 30, N-[3-[2-(difluoromethoxy)-5-(dimethylsulfamoyl)phenyl]-1-methyl-pyrazol-4-yl]pyrazolo[1,5-a]pyrimidine-3-carboxamide]	–	0.011	2.4	9.2
0.00049	COCCS(=O)(=O)c1ccc(OC(F)F)c(-c2nn(C)cc2NC(=O)c2cnn3cccnc23)c1 [Example 14, N-[3-[2-(difluoromethoxy)-5-(2-methoxyethylsulfonyl)phenyl]-1-methyl-pyrazol-4-yl]pyrazolo[1,5-a]pyrimidine-3-carboxamide]	–	0.023	32	≥ 50
0.00022	Cn1cc(NC(=O)c2cnn3cccnc23)c(-c2cc(S(=O)(=O)N3CCC3)ccc2OC(F)F)n1 [Example 21, N-[3-[5-(azetidin-1-ylsulfonyl)-2-(difluoromethoxy)phenyl]-1-methyl-pyrazol-4-yl]pyrazolo[1,5-a]pyrimidine-3-carboxamide]	–	0.014	4.8	11
0.00063	CN(CCO)S(=O)(=O)c1ccc(OC(F)F)c(-c2nn(C)cc2NC(=O)c2cnn3cccnc23)c1 [Example 73, N-(3-(2-(difluoromethoxy)-5-(N-(2-hydroxyethyl)-N-methylsulfamoyl)phenyl)-1-methyl-1H-pyrazol-4-yl)pyrazolo[1,5-a]pyrimidine-3-carboxamide]	–	0.053	2.9	8.4
0.00043	Cn1cc(NC(=O)c2cnn3cccnc23)c(-c2cc(S(=O)(=O)CCO)ccc2OC(F)F)n1 [Example 5, N-[3-[2-(difluoromethoxy)-5-(2-hydroxyethylsulfonyl)phenyl]-1-methyl-pyrazol-4-yl]pyrazolo[1,5-a]pyrimidine-3-carboxamide]	–	0.035	10.2	23
0.00026	CC(CO)S(=O)(=O)c1ccc(OC(F)F)c(-c2nn(C)cc2NC(=O)c2cnn3cccnc23)c1 (single isomer, unassigned) [Example 23, N-[3-[2-(difluoromethoxy)-5-(2-hydroxy-1-methyl-ethyl)sulfonyl-phenyl]-1-methyl-pyrazol-4-yl]pyrazolo[1,5-a]pyrimidine-3-carboxamide]	0.014	–	11	24
